The text below walks through data of patent US6589953B2, “Indole derivatives as 5-HT1B and 5-HT1D agonists” (Pierre Fabre Medicament, priority 1997, dated 2003).

A word on the melting point: it is the temperature, or range, at which the solid turns liquid. In the case of `NCCc1c[nH]c2ccc(OCC(=O)N3CCN(c4ccc(C5=NCCO5)cc4)CC3)cc12.O=C(O)/C=C/C(=O)O`, the melting point turned out to be 170 °C.

`NCCc1c[nH]c2ccc(OCC(=O)N3CCN(c4ccc(-c5nc6ccccc6s5)cc4)CC3)cc12.O=C(O)/C=C/C(=O)O` came in with a melting point of 156 to 160 °C.

In turn, `NCCc1c[nH]c2ccc(OCC(=O)N3CCN(c4ccc(-c5nnc(-c6ccccc6)o5)cc4)CC3)cc12.O=C(O)/C=C/C(=O)O` registered a melting point of 170 °C.

As for `Cc1ccccc1-c1nnc(-c2ccc(N3CCN(C(=O)COc4ccc5[nH]cc(CCN)c5c4)CC3)cc2)o1.O=C(O)/C=C/C(=O)O`, the melting point turned out to be 123 °C.

Regarding `Cc1ccc(-c2nnc(-c3ccc(N4CCN(C(=O)COc5ccc6[nH]cc(CCN)c6c5)CC4)cc3)o2)cc1.O=C(O)/C=C/C(=O)O`, the melting point was 135 °C.

For the compound `NCCc1c[nH]c2ccc(OCC(=O)N3CCN(c4ccc(-c5ccncc5)cc4)CC3)cc12.O=C(O)/C=C/C(=O)O`, the melting point worked out at 176 °C.

`Cl.Cl.NCCc1c[nH]c2ccc(OCC(=O)N3CCN(c4ccc(-c5ncco5)cc4)CC3)cc12`: the melting point was 64 to 66 °C (dec.).

Compound `NCCc1c[nH]c2ccc(OCC(=O)N3CCN(c4ccc(-c5cccs5)cc4)CC3)cc12.O=C(O)/C=C/C(=O)O` yielded a melting point of 154 to 156 °C.

`Cl.NCCc1c[nH]c2ccc(OCC(=O)N3CCN(c4ccc(-c5nn[nH]n5)cc4)CC3)cc12` had a melting point of 225 to 227 °C.
